Experimental data from patent US20160130630A1, “METHOD FOR DETECTING CAMPYLOBACTER” (JNC CORPORATION, priority 2014, published 2016).

Key:
[1] = test system: Campylobacter bacteria; assay: growth inhibition of Campylobacter bacteria by cephamycin antibiotics; type: cell-based
[2] = test system: ESBL-producing bacteria; assay: growth inhibition of ESBL-producing bacteria; type: cell-based

How did the “inhibition of growth of Campylobacter bacteria” value [1] turn out when CO[C@@]1(NC(=O)Cc2cccs2)C(=O)N2C(C(=O)O)=C(COC(N)=O)CS[C@@H]21 [Cefoxitin] was run?
The value was “does not inhibit growth”.

And the “inhibition of growth of ESBL-producing bacteria” value [2]?
Its value is “inhibits the growth”.
